Reference: ChEMBL document CHEMBL3352029, “Ring fusion strategy for the synthesis of anthra[2,3-d]oxazole-2-thione-5,10-dione homologues as DNA topoisomerase inhibitors and as antitumor agents” (Eur J Med Chem, 2014)

Experiments:
[1] = Cytotoxicity against human OVCAR4 cells assessed as cell growth level at 10 uM after 48 hrs by sulforhodamine B assay; format: functional, OVCAR-4
786-0 = assay: Cytotoxicity against human 786-0 cells assessed as cell growth level at 10 uM after 48 hrs by sulforhodamine B assay; format: functional
[2] = Cytotoxicity against human UACC257 cells assessed as cell growth level at 10 uM after 48 hrs by sulforhodamine B assay; format: functional, UACC-257
[3] = Cytotoxicity against human OVCAR5 cells assessed as cell growth level at 10 uM after 48 hrs by sulforhodamine B assay; format: functional, OVCAR-5
M14 = assay: Cytotoxicity against human M14 cells assessed as cell growth level at 10 uM after 48 hrs by sulforhodamine B assay; format: functional
[4] = Cytotoxicity against human OVCAR3 cells assessed as cell growth level at 10 uM after 48 hrs by sulforhodamine B assay; format: functional, OVCAR-3
NCI-H460 = assay: Cytotoxicity against human NCI-H460 cells assessed as cell growth level at 10 uM after 48 hrs by sulforhodamine B assay; format: functional
[5] = Cytotoxicity against human OVCAR8 cells assessed as cell growth level at 10 uM after 48 hrs by sulforhodamine B assay; format: functional, OVCAR-8
SR = assay: Cytotoxicity against human SR cells assessed as cell growth level at 10 uM after 48 hrs by sulforhodamine B assay; format: functional
HOP-62 = assay: Cytotoxicity against human HOP62 cells assessed as cell growth level at 10 uM after 48 hrs by sulforhodamine B assay; format: functional
K562 = assay: Cytotoxicity against human K562 cells assessed as cell growth level at 10 uM after 48 hrs by sulforhodamine B assay; format: functional
BT-549 = assay: Cytotoxicity against human BT549 cells assessed as cell growth level at 10 uM after 48 hrs by sulforhodamine B assay; format: functional
SK-MEL-2 = assay: Cytotoxicity against human SK-MEL-2 cells assessed as cell growth level at 10 uM after 48 hrs by sulforhodamine B assay; format: functional
SN12C = assay: Cytotoxicity against human SN12C cells assessed as cell growth level at 10 uM after 48 hrs by sulforhodamine B assay; format: functional
LOX IMVI = assay: Cytotoxicity against human LOXIMVI cells assessed as cell growth level at 10 uM after 48 hrs by sulforhodamine B assay; format: functional
[6] = Cytotoxicity against human PC3 cells assessed as cell growth level at 10 uM after 48 hrs by sulforhodamine B assay; format: functional, PC-3
SF-268 = assay: Cytotoxicity against human SF268 cells assessed as cell growth level at 10 uM after 48 hrs by sulforhodamine B assay; format: functional
NCI-H23 = assay: Cytotoxicity against human NCI-H23 cells assessed as cell growth level at 10 uM after 48 hrs by sulforhodamine B assay; format: functional
[7] = Cytotoxicity against human UACC62 cells assessed as cell growth level at 10 uM after 48 hrs by sulforhodamine B assay; format: functional, UACC-62
CCRF-CEM = assay: Cytotoxicity against human CCRF-CEM cells assessed as cell growth level at 10 uM after 48 hrs by sulforhodamine B assay; format: functional
COLO 205 = assay: Cytotoxicity against human COLO205 cells assessed as cell growth level at 10 uM after 48 hrs by sulforhodamine B assay; format: functional
[8] = Cytotoxicity against human UO31 cells assessed as cell growth level at 10 uM after 48 hrs by sulforhodamine B assay; format: functional, UO-31
NCI-H522 = assay: Cytotoxicity against human NCI-H522 cells assessed as cell growth level at 10 uM after 48 hrs by sulforhodamine B assay; format: functional
[9] = Cytotoxicity against human Hs 578T cells assessed as cell growth level at 10 uM after 48 hrs by sulforhodamine B assay; format: functional
T47D = assay: Cytotoxicity against human T47D cells assessed as cell growth level at 10 uM after 48 hrs by sulforhodamine B assay; format: functional
MDA-MB-435 = assay: Cytotoxicity against human MDA-MB-435 cells assessed as cell growth level at 10 uM after 48 hrs by sulforhodamine B assay; format: functional
MDA-MB-468 = assay: Cytotoxicity against human MDA-MB-468 cells assessed as cell growth level at 10 uM after 48 hrs by sulforhodamine B assay; format: functional
TK-10 = assay: Cytotoxicity against human TK10 cells assessed as cell growth level at 10 uM after 48 hrs by sulforhodamine B assay; format: functional
SNB-75 = assay: Cytotoxicity against human SNB75 cells assessed as cell growth level at 10 uM after 48 hrs by sulforhodamine B assay; format: functional
SK-MEL-5 = assay: Cytotoxicity against human SK-MEL-5 cells assessed as cell growth level at 10 uM after 48 hrs by sulforhodamine B assay; format: functional
SF-295 = assay: Cytotoxicity against human SF295 cells assessed as cell growth level at 10 uM after 48 hrs by sulforhodamine B assay; format: functional
KM12 = assay: Cytotoxicity against human KM12 cells assessed as cell growth level at 10 uM after 48 hrs by sulforhodamine B assay; format: functional
NCI-H226 = assay: Cytotoxicity against human NCI-H226 cells assessed as cell growth level at 10 uM after 48 hrs by sulforhodamine B assay; format: functional
HCC 2998 = assay: Cytotoxicity against human HCC2998 cells assessed as cell growth level at 10 uM after 48 hrs by sulforhodamine B assay; format: functional
U-251 = assay: Cytotoxicity against human U251 cells assessed as cell growth level at 10 uM after 48 hrs by sulforhodamine B assay; format: functional
MCF7 = assay: Cytotoxicity against human MCF7 cells assessed as cell growth level at 10 uM after 48 hrs by sulforhodamine B assay; format: functional
RPMI-8226 = assay: Cytotoxicity against human RPMI8226 cells assessed as cell growth level at 10 uM after 48 hrs by sulforhodamine B assay; format: functional
ACHN = assay: Cytotoxicity against human ACHN cells assessed as cell growth level at 10 uM after 48 hrs by sulforhodamine B assay; format: functional
HOP-92 = assay: Cytotoxicity against human HOP92 cells assessed as cell growth level at 10 uM after 48 hrs by sulforhodamine B assay; format: functional
CAKI-1 = assay: Cytotoxicity against human CAKI-1 cells assessed as cell growth level at 10 uM after 48 hrs by sulforhodamine B assay; format: functional
SW-620 = assay: Cytotoxicity against human SW620 cells assessed as cell growth level at 10 uM after 48 hrs by sulforhodamine B assay; format: functional
RXF 393 = assay: Cytotoxicity against human RXF393 cells assessed as cell growth level at 10 uM after 48 hrs by sulforhodamine B assay; format: functional
SK-MEL-28 = assay: Cytotoxicity against human SK-MEL-28 cells assessed as cell growth level at 10 uM after 48 hrs by sulforhodamine B assay; format: functional
[10] = Cytotoxicity against human HCT116 cells assessed as cell growth level at 10 uM after 48 hrs by sulforhodamine B assay; format: functional, HCT-116
MOLT-4 = assay: Cytotoxicity against human MOLT4 cells assessed as cell growth level at 10 uM after 48 hrs by sulforhodamine B assay; format: functional
HL-60(TB) = assay: Cytotoxicity against human HL-60(TB) cells assessed as cell growth level at 10 uM after 48 hrs by sulforhodamine B assay; format: functional
Malme-3M = assay: Cytotoxicity against human MALME-3M cells assessed as cell growth level at 10 uM after 48 hrs by sulforhodamine B assay; format: functional

CN(C)CCCSc1nc2cc3c(cc2o1)C(=O)c1ccccc1C3=O gave an Activity [1] of 109.08%, an Activity (786-0) of 86.09% and an Activity [2] of 99.82%. It also gave an Activity [3] of 86.43%, an Activity (M14) of 101.41% and an Activity [4] of 100.68%. It also gave an Activity (NCI-H460) of 60.58%, an Activity [5] of 72.26% and an Activity (SR) of 28.03%. The Activity (HOP-62) was 85.62%, the Activity (K562) was 51.17% and the Activity (BT-549) was 107.23%. The Activity (SK-MEL-2) was 92.13%, the Activity (SN12C) was 88.52% and the Activity (LOX IMVI) was 76.64%. The Activity [6] was 85.96%, the Activity (SF-268) was 102.39% and the Activity (NCI-H23) was 97.69%. The Activity [7] was 86%, the Activity (CCRF-CEM) was 55.33% and the Activity (COLO 205) was 59.49%. The Activity [8] was 59.82%, the Activity (NCI-H522) was 70.64% and the Activity [9] was 91.54%. It also gave an Activity (T47D) of 82.2%, an Activity (MDA-MB-435) of 85.47% and an Activity (MDA-MB-468) of 88.6%. For the same compound, the Activity (TK-10) was 73.42%, the Activity (SNB-75) was 88.28% and the Activity (SK-MEL-5) was 90.17%. It also gave an Activity (SF-295) of 92.69%, an Activity (KM12) of 82.13% and an Activity (NCI-H226) of 100.17%. For the same compound, the Activity (HCC 2998) was 100.1%, the Activity (U-251) was 87.74% and the Activity (MCF7) was 52.24%. For the same compound, the Activity (RPMI-8226) was 84.91%, the Activity (ACHN) was 57.3% and the Activity (HOP-92) was 34.36%. It also gave an Activity (CAKI-1) of 73.88%, an Activity (SW-620) of 69.11% and an Activity (RXF 393) of 83.05%. For the same compound, the Activity (SK-MEL-28) was 108.23%, the Activity [10] was 59.24% and the Activity (MOLT-4) was 13.77%. It also gave an Activity (HL-60(TB)) of 75.05% and an Activity (Malme-3M) of 101.35%.

With O=C1c2ccccc2C(=O)c2cc3oc(SCc4ccc(F)cc4)nc3cc21 the Activity [1] was 74.06%, the Activity (786-0) was 98.08% and the Activity [2] was 98.94%. The Activity [3] was 94.94%, the Activity (M14) was 103.58% and the Activity [4] was 115.02%. It also gave an Activity (NCI-H460) of 84.05%, an Activity [5] of 94.89% and an Activity (SR) of 85.14%. The Activity (HOP-62) was 89.39%, the Activity (K562) was 93.54% and the Activity (BT-549) was 102.4%. The Activity (SK-MEL-2) was 86.04%, the Activity (SN12C) was 92.48% and the Activity (LOX IMVI) was 94.24%. For the same compound, the Activity [6] was 88.52%, the Activity (SF-268) was 103.49% and the Activity (NCI-H23) was 90.64%. It also gave an Activity [7] of 89.94%, an Activity (CCRF-CEM) of 86.28% and an Activity (COLO 205) of 103.52%. The Activity [8] was 77.49%, the Activity (NCI-H522) was 80.08% and the Activity [9] was 95.47%. For the same compound, the Activity (T47D) was 102.69%, the Activity (MDA-MB-435) was 91.05% and the Activity (MDA-MB-468) was 90.68%. For the same compound, the Activity (TK-10) was 92.13%, the Activity (SNB-75) was 88.45% and the Activity (SK-MEL-5) was 97.58%. For the same compound, the Activity (SF-295) was 86.95%, the Activity (KM12) was 104.72% and the Activity (NCI-H226) was 83.03%. For the same compound, the Activity (HCC 2998) was 108.69%, the Activity (U-251) was 96.4% and the Activity (MCF7) was 80.56%. For the same compound, the Activity (RPMI-8226) was 96.5%, the Activity (ACHN) was 82.53% and the Activity (HOP-92) was 74.13%. The Activity (CAKI-1) was 90.54%, the Activity (SW-620) was 100.32% and the Activity (RXF 393) was 90.29%. The Activity (SK-MEL-28) was 98.54%, the Activity [10] was 88.61% and the Activity (MOLT-4) was 90.09%. It also gave an Activity (HL-60(TB)) of 95.74% and an Activity (Malme-3M) of 89.8%.

With CCSc1nc2cc3c(cc2o1)C(=O)c1ccccc1C3=O the Activity [1] was 94.25%, the Activity (786-0) was 99.33% and the Activity [2] was 92.45%. For the same compound, the Activity [3] was 104.57%, the Activity (M14) was 98.8% and the Activity [4] was 101%. It also gave an Activity (NCI-H460) of 100.33%, an Activity [5] of 92.46% and an Activity (SR) of 92.53%. It also gave an Activity (HOP-62) of 75.13%, an Activity (K562) of 96.26% and an Activity (BT-549) of 114.59%. For the same compound, the Activity (SK-MEL-2) was 96.71%, the Activity (SN12C) was 98.57% and the Activity (LOX IMVI) was 91%. It also gave an Activity [6] of 84.23%, an Activity (SF-268) of 102.22% and an Activity (NCI-H23) of 90.76%. The Activity [7] was 89.01%, the Activity (CCRF-CEM) was 90.48% and the Activity (COLO 205) was 98.08%. For the same compound, the Activity [8] was 57.94%, the Activity (NCI-H522) was 80.08% and the Activity [9] was 81.15%. The Activity (T47D) was 96.02%, the Activity (MDA-MB-435) was 101.49% and the Activity (MDA-MB-468) was 88.73%. For the same compound, the Activity (TK-10) was 100.92%, the Activity (SNB-75) was 96.42% and the Activity (SK-MEL-5) was 100.35%. For the same compound, the Activity (SF-295) was 92.06%, the Activity (KM12) was 101.43% and the Activity (NCI-H226) was 82.45%. The Activity (HCC 2998) was 101.65%, the Activity (U-251) was 94% and the Activity (MCF7) was 81.27%. It also gave an Activity (RPMI-8226) of 91.04%, an Activity (ACHN) of 90.86% and an Activity (HOP-92) of 72.67%. It also gave an Activity (CAKI-1) of 93.49%, an Activity (SW-620) of 91.86% and an Activity (RXF 393) of 101%. For the same compound, the Activity (SK-MEL-28) was 92.36%, the Activity [10] was 95.99% and the Activity (MOLT-4) was 101.76%. The Activity (HL-60(TB)) was 96.05% and the Activity (Malme-3M) was 91.75%.
